# Test results: BindingDB's records for doi:10.1124/jpet.301.1.322 (Sanofi Synthelabo, 2002)
# Changes are numbered by the printed parent chain. Several values for one entry are separate records, joined by “and”; a condition that tells them apart may be missing. Equal entries are not always repeated.
# Experiments:
# [1] = target: T1, Corticotropin-releasing factor receptor 1 (Rattus norvegicus, UniProt P35353)
# T1 sequence (P35353 whole entry): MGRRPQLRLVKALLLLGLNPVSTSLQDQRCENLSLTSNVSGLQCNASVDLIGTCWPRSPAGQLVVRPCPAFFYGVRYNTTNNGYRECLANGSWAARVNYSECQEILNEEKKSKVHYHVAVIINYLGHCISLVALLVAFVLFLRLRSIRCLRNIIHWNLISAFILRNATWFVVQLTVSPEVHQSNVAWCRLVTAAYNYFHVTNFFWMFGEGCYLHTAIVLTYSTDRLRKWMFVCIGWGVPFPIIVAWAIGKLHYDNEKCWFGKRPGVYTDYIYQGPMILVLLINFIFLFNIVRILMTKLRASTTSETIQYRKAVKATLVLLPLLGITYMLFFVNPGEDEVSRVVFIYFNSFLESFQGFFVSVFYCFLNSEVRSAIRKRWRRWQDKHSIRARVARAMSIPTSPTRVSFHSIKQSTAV
# [2] = target: T2, Corticotropin-releasing factor receptor 1 (Homo sapiens, UniProt P34998)
# T2 sequence (P34998 whole entry): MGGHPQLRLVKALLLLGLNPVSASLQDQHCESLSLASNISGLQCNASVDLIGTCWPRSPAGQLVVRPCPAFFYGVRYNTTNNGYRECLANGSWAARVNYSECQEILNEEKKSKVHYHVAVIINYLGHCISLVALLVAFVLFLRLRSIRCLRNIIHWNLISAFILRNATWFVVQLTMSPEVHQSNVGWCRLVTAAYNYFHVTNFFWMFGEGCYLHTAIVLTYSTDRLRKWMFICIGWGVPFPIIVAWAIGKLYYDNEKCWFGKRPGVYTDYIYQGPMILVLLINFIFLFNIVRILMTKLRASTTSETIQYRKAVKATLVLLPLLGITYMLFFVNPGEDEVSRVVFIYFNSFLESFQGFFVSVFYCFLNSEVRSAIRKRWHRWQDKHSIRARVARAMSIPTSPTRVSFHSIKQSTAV
# [3] = target: T3, Corticotropin-releasing factor receptor 1 (Mus musculus, UniProt P35347)
# T3 sequence (P35347 whole entry): T1 sequence (P35353 whole entry) with R3Q, R29Q, N32S, T36A, V118I, H252Y
smiles,measurement,setting,value
Cc1ccccc1C(=O)Nc1ccc(C(=O)N2CCCC(O)c3cc(Cl)ccc32)c(C)c1 (stereo not drawn),Ki,[1],1.7 nM and 1 nM
same,Ki,[2],0.83 nM
same,Ki,[3],1.26 nM
